According to US8513161B2, “Enhancement of plant growth” (Valent Biosciences Corporation, priority 2007, dated 2013):
Counter-ions that a name gives are not always drawn.

How the values were obtained:
cotton [1] = test: Continuous exposure pouch study, PESA salt and imidacloprid on cotton; assay type: in vivo; details: for shoot length of cotton / root length of cotton: in pouch; for shoot length of cotton: control 6.2; for root length of cotton: control 13.3
Protocol: Seeds were placed in germination pouches consisting of germination paper hydrated with sterile water that was an insert in a gas-permeable 16×14 cm plastic pouch (CYG Pouch; Mega International, St. Paul, Minn.). In these examples, in pouch solution evaluation, clothianidin and PESA sodium salt were added to the sterile water in the pouch. Alternatively, imidacloprid or dinotefuran and PESA sodium salt were added to the sterile water in the pouch. The pouches were arranged in a completely randomized block design in growth racks and placed in 19-liter polycarbonate food storage containers (Rubbermaid Commercial Products, Winchester, Va.). The sealed containers were held in an upright growth cabinet maintained at 25 C with a 12 hour light: 12 hour dark photoperiod. After 6 days, the containers were removed from the growth cabinet, and the lengths of the roots and shoot were measured. […] Root lengths of the control and combination treatment of imidacloprid with 100 mg/liter PESA salt were similar.

canola = test: Field study, seed treatment of canola; assay type: in vivo, Brassica napus; details: for vigor rating (1 = low and 5 = high) of canola plants: 19 days after planting, control 3.8
Protocol: (§1) For the field studies, the seed was treated with a seed treatment formulation containing clothianidin. The rate of clothianidin was dependent on the crop species. The seed treatment formulations were amended with the appropriate concentrations of either PESA or the sodium salt of PESA. Crops were planted and grown under standard agricultural practices, and evaluated at the times indicated. The sodium salt of PESA was prepared as described above, and was used in seed treatment either alone or in the presence of clothianidin. Canola (Brassica napus) seed was treated with 0 or 400 grams of clothianidin/100 kg (220 pound) of seed and with 0, 22, 55, or 137.5 grams PESA salt/100 kg seed.

cotton [2] = test: Continuous exposure pouch study, PESA salt and clothianidin on cotton; assay type: in vivo; details: for shoot length of cotton / root length of cotton: in pouch; for shoot length of cotton: control 6.1; for root length of cotton: control 11.4
Protocol: (§2) Seeds were placed in germination pouches consisting of germination paper hydrated with sterile water that was an insert in a gas-permeable 16×14 cm plastic pouch (CYG Pouch; Mega International, St. Paul, Minn.). In these examples, in pouch solution evaluation, clothianidin and PESA sodium salt were added to the sterile water in the pouch. Alternatively, imidacloprid or dinotefuran and PESA sodium salt were added to the sterile water in the pouch. The pouches were arranged in a completely randomized block design in growth racks and placed in 19-liter polycarbonate food storage containers (Rubbermaid Commercial Products, Winchester, Va.). The sealed containers were held in an upright growth cabinet maintained at 25 C with a 12 hour light: 12 hour dark photoperiod. After 6 days, the containers were removed from the growth cabinet, and the lengths of the roots and shoot were measured.

soybean = test: Field study, seed treatment of soybean; assay type: in vivo; details: for average plant height of soybean: 66 days after planting, control 23.8
Protocol: as §1, with “Soybean” for “Canola (Brassica napus)”, “50” for “400”

cotton [3] = test: Pouch assay of cotton after PESA salt and clothianidin seed treatments; assay type: in vivo; details: seed treatment; for shoot length of cotton: control 3.7; for root length of cotton: control 9.6
Protocol: Seed was sieved with a screen of hole size appropriate to remove broken seeds and small trash. Cracked or otherwise damaged seeds were removed. The seed was well mixed, and 50 g samples were weighed into small plastic trays. Seed treatment slurries were made by adding measured amounts of the active ingredients to sufficient water to bring them up to a standard volume, typically 2 ml. A fungicide (Maxim XL; Syngenta Agricultural Products, Greensboro, N.C.), a polymeric binder (CF-Clear; Becker-Underwood, Ames, Iowa), and a colorant (Color Coat Red; Becker-Underwood, Ames, Iowa) were also included in the slurry at label rates. A small aliquot of this slurry was applied to the seed using the Hege 11 coater (Wintersteiger, Salt Lake City, Utah) with a six-inch bowl. The slurry was deposited drop-wise on the spinning disk atomizer using a syringe.
as §2

sorghum = test: Field study, seed treatment of sorghum; assay type: in vivo; details: for root dry weight of a sample of 10 sorghum plants: 73 days after planting, control 148.5
Protocol: as §1, with “Sorghum” for “Canola (Brassica napus)”, “200” for “400”

maize = test: Field study, seed treatment of maize; assay type: in vivo, Zea mays; details: 27 days after planting, control 3.6
Protocol: For the field studies, the seed was treated with a seed treatment formulation containing clothianidin. The rate of clothianidin was dependent on the crop species. The seed treatment formulations were amended with the appropriate concentrations of either PESA or the sodium salt of PESA. Crops were planted and grown under standard agricultural practices, and evaluated at the times indicated. The PESA or the sodium salt of PESA was prepared as described above, and was used in seed treatment either alone or in the presence of clothianidin. Maize (Zea mays) seed was treated with 0 or 0.25 milligrams of clothianidin/seed and with 0, 22, 55, or 137.5 grams PESA salt/100 kg seed.

[4] = sodium salt of PESA 22 g/100 kg seed alone
[5] = sodium salt of PESA 55 g/100 kg seed alone
[6] = sodium salt of PESA 137.5 g/100 kg seed alone
[7] = PESA salt 10 g/100 pounds of seed alone
[8] = PESA salt 25 g/100 pounds of seed alone

O=C(O)CCC(=O)NCCc1ccccc1 [PESA salt]
safening of cotton (cotton [1]; conclusion from Table 5): safened cotton against imidacloprid-induced root growth inhibition
shoot length of cotton (cotton [1]; PESA salt 10 mg/liter alone): 6.2 cm
root length of cotton (cotton [1]; PESA salt 10 mg/liter alone): 14.6 cm
shoot length of cotton (cotton [1]; PESA salt 30 mg/liter alone): 6.0 cm
root length of cotton (cotton [1]; PESA salt 30 mg/liter alone): 16.9 cm
shoot length of cotton (cotton [1]; PESA salt 100 mg/liter alone): 6.0 cm
root length of cotton (cotton [1]; PESA salt 100 mg/liter alone): 16.5 cm
shoot length of cotton (cotton [1]; PESA salt 300 mg/liter alone): 5.7 cm
root length of cotton (cotton [1]; PESA salt 300 mg/liter alone): 11.9 cm
vigor rating (1 = low and 5 = high) of canola plants (canola; [4]): 3.8
vigor rating (1 = low and 5 = high) of canola plants (canola; [5]): 4
vigor rating (1 = low and 5 = high) of canola plants (canola; [6]): 4
safening of canola (canola; conclusion from Table 11): safened canola against clothianidin-induced vigor reduction
safening of cotton (cotton [2]; continuous exposure pouch, conclusion from Table 3): safened cotton against clothianidin-induced root growth inhibition
effect on cotton root length (cotton [2]; continuous exposure pouch, substance alone): increased root length in a dose-dependent manner
effect on cotton shoot length (cotton [2]; continuous exposure pouch, 300 mg/liter PESA salt alone): reduced
shoot length of cotton (cotton [2]; PESA salt 10 mg/liter alone): 6.3 cm
root length of cotton (cotton [2]; PESA salt 10 mg/liter alone): 14.2 cm
shoot length of cotton (cotton [2]; PESA salt 30 mg/liter alone): 6.1 cm
root length of cotton (cotton [2]; PESA salt 30 mg/liter alone): 15.3 cm
shoot length of cotton (cotton [2]; PESA salt 100 mg/liter alone): 6.0 cm
root length of cotton (cotton [2]; PESA salt 100 mg/liter alone): 16.2 cm
shoot length of cotton (cotton [2]; PESA salt 300 mg/liter alone): 5.4 cm
average plant height of soybean (soybean; [4]): 23.8 inches
average plant height of soybean (soybean; [5]): 23.5 inches
average plant height of soybean (soybean; [6]): 23.2 inches
safening of soybean (soybean; conclusion from Table 9): safened soybean against clothianidin-induced root growth inhibition
effect on cotton shoot length (cotton [3]; Table 2): increased cotton shoot length
safening of cotton (cotton [3]; conclusion from Table 1): safened cotton against clothianidin-induced root growth inhibition
shoot length of cotton (cotton [3]; [7]): 4.3 cm
root length of cotton (cotton [3]; [7]): 8.8 cm
shoot length of cotton (cotton [3]; [8]): 4.3 cm
root length of cotton (cotton [3]; [8]): 10.6 cm
root dry weight of a sample of 10 sorghum plants (sorghum; [4]): 183.5 grams
root dry weight of a sample of 10 sorghum plants (sorghum; [5]): 146.5 grams
root dry weight of a sample of 10 sorghum plants (sorghum; [6]): 141.6 grams
safening of sorghum (sorghum; conclusion from Table 10): safened sorghum against clothianidin-induced root growth inhibition
vigor rating of maize plants, Vigor (1-5) (maize; PESA sodium salt 22 g/100 kg seed alone): 3.8
vigor rating of maize plants, Vigor (1-5) (maize; PESA sodium salt 55 g/100 kg seed alone): 3.5
vigor rating of maize plants, Vigor (1-5) (maize; PESA sodium salt 137.5 g/100 kg seed alone): 3.4
